Measurements published in patent US20250092039A1, “GLUTARIMIDE-CONTAINING PAN-KRAS-MUTANT DEGRADER COMPOUNDS AND USES THEREOF” (Tiger Biotherapeutics Inc., priority 2022, published 2025).

Columns and labels:
[1] = system: SW620 cells; assay: 3D cell growth inhibition of SW620 cells carrying endogenous KRAS G12V mutation (CellTiter-Glo 3D, GI50); assay type: cell-based; conditions: Homo sapiens, SW-620, 144 h; SW620 cells, 6 days; read-out: SW620 3D cell growth GI50
Summary of the method: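 SW620 cells (endogenous KRAS G12V) grown in 3D were dosed next day with compound from DMSO stocks at various concentrations, then incubated 6 days at 37° C.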

[2] = target: KRAS-G12V/RAF1 (Homo sapiens (Human), UniProt P01116, G12V); assay: KRAS/RAF1 binding inhibition assay (AlphaScreen)
Summary of the method: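 Binding of GppNHp-loaded KRAS G12V to the RAF1 RBD was measured by AlphaScreen with test compound present in 2% DMSO (final), 60 min incubation at 4° C. Signals were converted to % inhibition versus DMSO, and IC50 was obtained by variable-slope nonlinear regression.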

[3] = target: KRAS G12V (Homo sapiens (Human), UniProt P01116, G12V); assay: KRAS G12V degradation in SW620 cells (Western blot, DC50); assay type: cell-based; conditions: 24 hours
Summary of the method: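 SW620 cells (homozygous KRAS G12V) were treated with compound for 24 hours at 37° C. KRAS in lysates was measured by Western blot with fluorescent secondary antibodies and expressed relative to DMSO vehicle (100%). DC50 came from a four-parameter variable-slope dose-response fit.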

KRAS-G12V/RAF1, sequence (P01116-2 other isoform, or with tags, fused parts or gaps G12V): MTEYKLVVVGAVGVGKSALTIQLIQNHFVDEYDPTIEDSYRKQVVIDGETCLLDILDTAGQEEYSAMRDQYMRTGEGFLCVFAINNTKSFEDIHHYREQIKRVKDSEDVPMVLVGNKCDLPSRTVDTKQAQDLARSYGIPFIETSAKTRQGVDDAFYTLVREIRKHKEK
KRAS G12V, sequence (P01116-2 other isoform, or with tags, fused parts or gaps G12V): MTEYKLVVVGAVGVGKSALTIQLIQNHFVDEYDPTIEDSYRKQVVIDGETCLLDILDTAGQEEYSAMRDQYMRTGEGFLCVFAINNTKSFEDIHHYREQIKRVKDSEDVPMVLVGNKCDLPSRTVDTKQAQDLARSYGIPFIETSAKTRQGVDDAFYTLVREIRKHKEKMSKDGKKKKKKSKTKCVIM

Structure (SMILES) | GI50 [1] [nM] | IC50 [2] [nM] | DC50 [3] [nM]
CCc1c(F)ccc2cc(O)cc(-c3ncc4c(N5CCC[C@@](C)(O)C5)nc(OCC5(CN6CCC(N7CC8(CCN(c9ccc%10c(c9)CN(C9CCC(=O)NC9=O)C%10=O)CC8)C7)CC6)CC5)nc4c3F)c12 (stereo partly drawn) [Compound 143, 3-(5-(2-(1-((1-(((7-(8-ethyl-7-fluoro-3-hydroxynaphthalen-1-yl)-8-fluoro-4-((R)-3-hydroxy-3-methylpiperidin-1-yl)pyrido[4,3-d]pyrimidin-2-yl)oxy)methyl)cyclopropyl)methyl)piperidin-4-yl)-2,7-diazaspiro[3.5]nonan-7-yl)-1-oxoisoindolin-2-yl)piperidine-2,6-dione] | < 10 | < 20 | < 1
CCc1cccc2cc(O)cc(-c3ncc4c(N5CCC[C@@](C)(O)C5)nc(OCC5(CN6CCC(OC7CCN(c8ccc9c(c8)CN(C8CCC(=O)NC8=O)C9=O)CC7)CC6)CC5)nc4c3F)c12 (stereo partly drawn) [Compound 24, 3-(5-(4-((1-((1-(((7-(8-ethyl-3-hydroxynaphthalen-1-yl)-8-fluoro-4-((R)-3-hydroxy-3-methylpiperidin-1-yl)pyrido[4,3-d]pyrimidin-2-yl)oxy)methyl)cyclopropyl)methyl)piperidin-4-yl)oxy)piperidin-1-yl)-1-oxoisoindolin-2-yl)piperidine-2,6-dione] | < 10 | 20 to 200 | < 1
CCc1c(F)ccc2cc(O)cc(-c3ncc4c(N5CCC[C@@](C)(O)C5)nc(OCC5(CN6CC7(CCC(F)(CN8CCN(c9ccc%10c(c9)CN([C@H]9CCC(=O)NC9=O)C%10=O)CC8)CC7)C6)CC5)nc4c3F)c12 [Compound 178, (S)-3-(5-(4-((2-((1-(((7-(8-ethyl-7-fluoro-3-hydroxynaphthalen-1-yl)-8-fluoro-4-((R)-3-hydroxy-3-methylpiperidin-1-yl)pyrido[4,3-d]pyrimidin-2-yl)oxy)methyl)cyclopropyl)methyl)-7-fluoro-2-azaspiro[3.5]nonan-7-yl)methyl)piperazin-1-yl)-1-oxoisoindolin-2-yl)piperidine-2,6-dione] | < 10 | 20 to 200 | < 1
CCc1c(F)ccc2cc(O)cc(-c3ncc4c(N5CCC[C@@](C)(O)C5)nc(OCC5(CN6CC(N7CC(N8CCN(c9ccc%10c(c9)CN([C@H]9CCC(=O)NC9=O)C%10=O)CC8)C7)C6)CC5)nc4c3F)c12 [Compound 137, (S)-3-(5-(4-(1′-((1-(((7-(8-ethyl-7-fluoro-3-hydroxynaphthalen-1-yl)-8-fluoro-4-((R)-3-hydroxy-3-methylpiperidin-1-yl)pyrido[4,3-d]pyrimidin-2-yl)oxy)methyl)cyclopropyl)methyl)-[1,3′-biazetidin]-3-yl)piperazin-1-yl)-1-oxoisoindolin-2-yl)piperidine-2,6-dione] | < 10 | 20 to 200 | 1 to 10
CCc1c(F)ccc2cc(O)cc(-c3ncc4c(N5CCOC[C@@](C)(O)C5)nc(OCC5(CN6CCC7(CC6)CC(F)(CN6CCN(c8ccc9c(c8)CN([C@H]8CCC(=O)NC8=O)C9=O)CC6)C7)CC5)nc4c3F)c12 [Compound 175, (S)-3-(5-(4-((7-((1-(((7-(8-ethyl-7-fluoro-3-hydroxynaphthalen-1-yl)-8-fluoro-4-((S)-6-hydroxy-6-methyl-1,4-oxazepan-4-yl)pyrido[4,3-d]pyrimidin-2-yl)oxy)methyl)cyclopropyl)methyl)-2-fluoro-7-azaspiro[3.5]nonan-2-yl)methyl)piperazin-1-yl)-1-oxoisoindolin-2-yl)piperidine-2,6-dione] | < 10 | < 20 | < 1
CCc1c(F)ccc2cc(O)cc(-c3ncc4c(N5CCC[C@@](C)(O)C5)nc(OCC5(CN6CCC(N7CC8(CCN(c9cc(F)c(C%10CCC(=O)NC%10=O)c(F)c9)CC8)C7)CC6)CC5)nc4c3F)c12 (stereo partly drawn) [Compound 57, 3-(4-(2-(1-((1-(((7-(8-ethyl-7-fluoro-3-hydroxynaphthalen-1-yl)-8-fluoro-4-((R)-3-hydroxy-3-methylpiperidin-1-yl)pyrido[4,3-d]pyrimidin-2-yl)oxy)methyl)cyclopropyl)methyl)piperidin-4-yl)-2,7-diazaspiro[3.5]nonan-7-yl)-2,6-difluorophenyl)piperidine-2,6-dione] | < 10 | < 20 | 1 to 10
CCc1c(F)ccc2cc(O)cc(-c3ncc4c(N5CCC[C@@](C)(O)C5)nc(OCC5(CN6CCC7(CC6)CN(C6CCN(c8ccc9c(c8)CN(C8CCC(=O)NC8=O)C9=O)CC6)C7)CC5)nc4c3F)c12 (stereo partly drawn) [Compound 155, 3-(5-(4-(7-((1-(((7-(8-ethyl-7-fluoro-3-hydroxynaphthalen-1-yl)-8-fluoro-4-((R)-3-hydroxy-3-methylpiperidin-1-yl)pyrido[4,3-d]pyrimidin-2-yl)oxy)methyl)cyclopropyl)methyl)-2,7-diazaspiro[3.5]nonan-2-yl)piperidin-1-yl)-1-oxoisoindolin-2-yl)piperidine-2,6-dione] | < 10 | < 20 | < 1
CCc1c(F)ccc2cc(O)cc(-c3ncc4c(N5CCC[C@@](C)(O)C5)nc(OCC5(CN6CCC(N7CC8(CN(c9ccc%10c(c9)CN(C9CCC(=O)NC9=O)C%10=O)C8)C7)CC6)CC5)nc4c3F)c12 (stereo partly drawn) [Compound 154, 3-(5-(6-(1-((1-(((7-(8-ethyl-7-fluoro-3-hydroxynaphthalen-1-yl)-8-fluoro-4-((R)-3-hydroxy-3-methylpiperidin-1-yl)pyrido[4,3-d]pyrimidin-2-yl)oxy)methyl)cyclopropyl)methyl)piperidin-4-yl)-2,6-diazaspiro[3.3]heptan-2-yl)-1-oxoisoindolin-2-yl)piperidine-2,6-dione] | < 10 | < 20 | < 1
CCc1c(F)ccc2cc(N)cc(-c3ncc4c(N5CCC[C@@](C)(O)C5)nc(OCC5(CN6CCC7(CC6)CC(CN6CCN(c8ccc9c(c8)CN([C@H]8CCC(=O)NC8=O)C9=O)CC6)C7)CC5)nc4c3F)c12 [Compound 88, (S)-3-(5-(4-((7-((1-(((7-(3-amino-8-ethyl-7-fluoronaphthalen-1-yl)-8-fluoro-4-((R)-3-hydroxy-3-methylpiperidin-1-yl)pyrido[4,3-d]pyrimidin-2-yl)oxy)methyl)cyclopropyl)methyl)-7-azaspiro[3.5]nonan-2-yl)methyl)piperazin-1-yl)-1-oxoisoindolin-2-yl)piperidine-2,6-dione] | 10 to 100 | > 200 | > 100
CCc1cccc2cc(O)cc(-c3ncc4c(N5CCC[C@@](C)(O)C5)nc(OCC5(CN6CCC7(CC6)CCN(c6ccc8c(c6)CN(C6CCC(=O)NC6=O)C8=O)CC7)CC5)nc4c3F)c12 (stereo partly drawn) [Compound 140, 3-(5-(9-((1-(((7-(8-ethyl-3-hydroxynaphthalen-1-yl)-8-fluoro-4-((R)-3-hydroxy-3-methylpiperidin-1-yl)pyrido[4,3-d]pyrimidin-2-yl)oxy)methyl)cyclopropyl)methyl)-3,9-diazaspiro[5.5]undecan-3-yl)-1-oxoisoindolin-2-yl)piperidine-2,6-dione] | < 10 | 20 to 200 | < 1
CCc1c(F)ccc2cc(O)cc(-c3ncc4c(N5CCOCC(C)(O)C5)nc(OCC5(CN6CCC(CN7CCN(c8ccc9c(c8)CN([C@H]8CCC(=O)NC8=O)C9=O)CC7)CC6)CC5)nc4c3F)c12 (stereo partly drawn) [Compound 92, (3S)-3-(5-(4-((1-((1-(((7-(8-ethyl-7-fluoro-3-hydroxynaphthalen-1-yl)-8-fluoro-4-(6-hydroxy-6-methyl-1,4-oxazepan-4-yl)pyrido[4,3-d]pyrimidin-2-yl)oxy)methyl)cyclopropyl)methyl)piperidin-4-yl)methyl)piperazin-1-yl)-1-oxoisoindolin-2-yl)piperidine-2,6-dione] | < 10 | 20 to 200 | 1 to 10
C#Cc1c(F)ccc2cc(N)cc(-c3ncc4c(N5CCC[C@@](C)(O)C5)nc(OCC5(CN6CCC(CN7CCN(c8ccc9c(c8)CN([C@H]8CCC(=O)NC8=O)C9=O)CC7)CC6)CC5)nc4c3F)c12 [Compound 118, (S)-3-(5-(4-((1-((1-(((7-(3-amino-8-ethynyl-7-fluoronaphthalen-1-yl)-8-fluoro-4-((R)-3-hydroxy-3-methylpiperidin-1-yl)pyrido[4,3-d]pyrimidin-2-yl)oxy)methyl)cyclopropyl)methyl)piperidin-4-yl)methyl)piperazin-1-yl)-1-oxoisoindolin-2-yl)piperidine-2,6-dione] | > 100 | > 200 | > 100
CCc1cccc2cc(O)cc(-c3ncc4c(N(C)C5CC5)nc(OCC5(CN6CCC(CN7CCN(c8ccc9c(c8)CN([C@H]8CCC(=O)NC8=O)C9=O)CC7)CC6)CC5)nc4c3F)c12 [Compound 15, (S)-3-(5-(4-((1-((1-(((4-(cyclopropyl(methyl)amino)-7-(8-ethyl-3-hydroxynaphthalen-1-yl)-8-fluoropyrido[4,3-d]pyrimidin-2-yl)oxy)methyl)cyclopropyl)methyl)piperidin-4-yl)methyl)piperazin-1-yl)-1-oxoisoindolin-2-yl)piperidine-2,6-dione] | > 100 | > 200 | > 100
